Source: patent US20050095287A1, “Fosinopril composition” (priority 2003, published 2005)

Experiment: Solubility of the active drug (statement)
Type: physicochemical

- solubility: highly soluble
SMILES: CCC(=O)O[C@@H](O[P@](=O)(CCCCc1ccccc1)CC(=O)N1C[C@H](C2CCCCC2)C[C@H]1C(=O)O)C(C)C [Fosinipril, Fosinopril]
